The text below walks through data of patent publication US11524962B2, “Substituted pyrrolo[2,3-d]pyrimidines as inhibitors of protein arginine methyl transferase 5 (PRMT5)” (PRELUDE THERAPEUTICS, INCORPORATED, priority 2017, dated 2022).

Read-outs that look alike come from different tables or passages of the source.

For test [1], the target named is T1, PRMT5/MEP50 complex (Homo sapiens (Human), UniProt O14744). The test can be described thus: Flash plate assay. The test is classed as biochemical. On the procedure: Flash plate assay. Compounds were solubilized, and 3-fold diluted in 100% DMSO. […] Standard reactions were performed in a total volume of 30 μl in assay buffer, with 300 nM histone H4 based AcH4-23 (Anaspec: AS-65002) as substrate. To this was added the PRMT5/MEP50 complex diluted to provide a final assay concentration of 2.5 nM and the compounds were allowed to preincubate for 20 minutes at 37° C. The reaction was initiated by adding S-[3H-methyl]-adenosyl-L-methionine (PerkinElmer: NET155001MC) to final concentration of 1 μM. Following a 30 minutes incubation at 37° C., the reaction was stopped by adding 25 μL of 8M Guanidine HCl. Prepare streptavidin YSI SPA beads (Perkinelmer: RPNQ0012) at 0.3 mg/mL in assay buffer. To each reaction, add 150 μL of SPA beads suspension, and incubated while shaking at room temperature for 30 minutes. The plate was centrifuged at 100×g for 30 second before reading in a scintillation counter. IC50 values were determined by fitting the data to the standard 4 parameters with Hill Slope using GraphPad Prism software. This procedure produced the Flash Plate data in Table 7.

Test [2] concerns Symmetric Di-Methyl Arginine (sDMA) marks in Granta-519 cells. The test can be described thus: sDMA Western blot / In Cell Western in Granta-519 cells. Format: cell-based. The note with it: Homo sapiens. On the procedure:
Compound titration and cell culture: Compounds were dissolved in DMSO to make 10 mM stock and 3-fold series dilutions were further conducted to make working stocks top at 1 mM. Granta-519 cells were maintained in PRMI 1640 (Corning Cellgro, Catalog #: 10-040-CV) supplemented with 10% v/v FBS (GE Healthcare, Catalog #: SH30910.03) and U-87 MG cells were maintained in DMEM (Corning Cellgro, Catalog #: 10-013-CV) with 10% FBS and 2 mM Glutamin (Corning Cellgro, Catalog #25005CV).
To determine enzyme inhibition IC50 values in Granta-519 and U-87 MG cells using Western Blot analysis. One day before experiment, Granta-519 cells were passaged to a density of 0.5×10^6 cells/ml. U-87 MG cells were trypsinized and 4×10^5 cells were seeded into 6-well plates and allow to grow overnight. The next day, Granta-519 cells were spun down at 1,500 rpm for 4 min, resuspend in fresh medium at 0.5×10^6 cells/ml and 3 mL of culture (1.5×10^6 cells) were seeded into 6 well plate. Eight-point, 3-fold serial dilutions of compound working stocks were added to cells (3 ul, 1:1,000 dilution, DMSO concentration was 0.1%; final top concentration at 1 uM) and incubated for 3 days. Cells incubated with DMSO was used as a vehicle control.
Cells were harvested 3 days later, resuspended in 15 uL PBS, lysed in 4% SDS, and homogenized by passing through homogenizer column (Omega Biotek, Catalog #: HCR003). Total protein concentrations were determined by BCA assay (ThermoFisher Scientific, Catalog #: 23225). Lysates were mixed with 5× Laemmli buffer and boiled for 5 min. Forty ug of total protein was separated on SDS-PAGE gels (Bio-Rad, catalog #: 4568083, 4568043), transferred to PVDF membrane, blocked with 5% dry milk (Bio-Rad, Catalog #: 1706404) in TBS with 0.1% v/v Tween 20 (TBST) for 1 hour at room temperature (RT), and incubated with primary antibodies (sDMA: Cell signaling, Catalog #: 13222, 1:3,000; β-Actin: sigma, Catalog #: 1:5,000) in 5% dry milk in TBST at 4° C. overnight. The next day, membranes were washed with TBST, 5×5 min, and incubated with HRP conjugated seconded antibody (GE Healthcare; Catalog #: NA934-1ML, NA931-1ML; 1:5,000) for 2 hours at RT, followed by 5×5 min washes with TBST, and incubation with ECL substrates (Bio-Rad, Catalog #: 1705061, 1705062). Chemiluminescent signal was captured with Fluochem HD2 imager (Proteinsimple). SmD3me2s bands were quantified by ImageJ. Signals were normalized to β-Actin and DMSO control. IC50 values were calculated using Graphpad Prism ([Inhibitor]vs. normalized response−Variable slope).
sDMA In Cell Western procedure (ICW): Granta-519 cells were passaged to a density of 0.5×10^6 cells/ml one day before experiments and allowed to grow overnight. The next day (day 0), cells were spun down at 1,500 rpm for 4 min, resuspended in fresh medium to 0.2×10^6 cells/ml and 100 uL of cells were added to 384-well plates using a Multidrop Combi Dispenser (ThermoFisher). A series of 9-point, 3-fold serial dilutions of compounds were prepared and dispensed into wells from a 1 mM stock solution using a TECAN digital dispenser (D300e) and the DMSO % concentration was normalized in each well to 0.1%. DMSO and 3 uM of reference compounds were used as negative (minimum inhibition) and positive (maximum inhibition) controls, respectively. After 3 days of incubation, cells were first resuspended and then 80 ul of cells were transferred to a Poly-D-lysine 384-well plate (Corning, Catalog #354663), followed by 30 minutes incubation at room temperature (RT) and 5 additional hours of incubation at 37° C. […]
In general terms: A western blot detects proteins with antibodies after separation by electrophoresis.

Test [3] has as its target T1, PRMT5/MEP50 complex. Put plainly: HotSpot Assay. The test is classed as biochemical. As to the method: HotSpot Assay. Compounds were solubilized and 3-fold diluted in 100% DMSO. […] Standard reactions were performed in a total volume of 50 μl in assay buffer, with histone H2A (5 μM final) as substrate. To this was added the PRMT5/MEP50 complex diluted to provide a final assay concentration of 5 nM and the compounds were allowed to preincubate for 15 to 20 minutes at room temperature. The reaction was initiated by adding S-[3H-methyl]-adenosyl-L-methionine (PerkinElmer) to final concentration of 1 μM. Following a 60 minutes incubation at 30° C., the reaction was stopped by adding 100 μL of 20% TCA. Each reaction was spotted onto filter plate (MultiScreen FB Filter Plate, Millipore), and washed 5 times with PBS buffer, Scintillation fluid was added to the filter plate and read in a scintillation counter. IC50 values were determined by fitting the data to the standard 4 parameters with Hill Slope using GraphPad Prism software. This procedure generated the HotSpot data in Table 7.

Where [4] appears, read: initial testing, read-out: IC50 (flash plate).
[5] abbreviates: 72 h, Granta-519, 3 days, read-out: sDMA_Granta IC50.

T1 sequence (O14744 whole entry): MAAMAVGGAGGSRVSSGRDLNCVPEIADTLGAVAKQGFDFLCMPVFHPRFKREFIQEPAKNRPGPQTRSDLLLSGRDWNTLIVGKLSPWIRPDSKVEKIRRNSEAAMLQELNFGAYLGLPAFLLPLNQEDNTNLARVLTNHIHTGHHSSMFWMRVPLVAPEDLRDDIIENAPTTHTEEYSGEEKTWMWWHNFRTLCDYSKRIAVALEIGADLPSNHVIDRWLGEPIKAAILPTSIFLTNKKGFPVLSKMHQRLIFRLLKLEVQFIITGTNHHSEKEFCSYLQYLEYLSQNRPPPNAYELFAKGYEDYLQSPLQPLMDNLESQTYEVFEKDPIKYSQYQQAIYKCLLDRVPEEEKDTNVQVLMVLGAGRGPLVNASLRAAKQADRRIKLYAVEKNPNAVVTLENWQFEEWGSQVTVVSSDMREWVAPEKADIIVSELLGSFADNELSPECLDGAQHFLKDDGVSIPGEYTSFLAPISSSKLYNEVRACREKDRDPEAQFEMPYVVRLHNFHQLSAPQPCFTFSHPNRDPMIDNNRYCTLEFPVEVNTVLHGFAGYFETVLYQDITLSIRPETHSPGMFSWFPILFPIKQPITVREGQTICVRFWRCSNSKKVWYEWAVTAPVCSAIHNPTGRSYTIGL
T1 sequence (Q9BQA1 whole entry partner): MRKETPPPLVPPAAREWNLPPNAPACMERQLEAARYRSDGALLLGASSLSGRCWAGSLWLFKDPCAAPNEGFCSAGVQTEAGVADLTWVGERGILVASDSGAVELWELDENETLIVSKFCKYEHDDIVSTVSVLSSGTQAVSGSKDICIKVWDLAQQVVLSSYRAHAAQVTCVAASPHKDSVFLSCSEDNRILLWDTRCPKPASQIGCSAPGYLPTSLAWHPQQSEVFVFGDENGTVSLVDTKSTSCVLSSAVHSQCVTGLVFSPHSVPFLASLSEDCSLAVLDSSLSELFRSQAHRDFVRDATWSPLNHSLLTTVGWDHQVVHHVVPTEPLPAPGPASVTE

Take `C[C@@](O)(c1ccc2c(c1)CC2)[C@H]1O[C@@H](n2ccc3c(N)ncnc32)[C@H](O)[C@@H]1O` [Example 1, (2R,3R,4S,5S)-2-(4-amino-7H-pyrrolo[2,3-d]pyrimidin-7-yl)-5-((R)-1-(bicyclo[4.2.0]octa-1(6),2,4-trien-3-yl)-1-hydroxyethyl)tetrahydrofuran-3,4-diol]: the IC50 (in general, the midpoint of a concentration-inhibition curve) at PRMT5/MEP50 complex [1] (setting [4]) amounted to 0.0063 µM; on PRMT5/MEP50 complex [1] (read-out: Flash Plate IC50), 0.0062 µM; in test [2] (setting [5]), 0.022 µM; in test [2] (Granta-519, initial testing, read-out: sDMS (Granta) IC50), 0.009 µM; at PRMT5/MEP50 complex [3], 0.003 µM.

With `Cc1ncnc2c1ccn2[C@@H]1O[C@H]([C@H](O)c2nc3c(s2)CCC3)[C@@H](O)[C@H]1O` [Example 52, (2S,3S,4R,5R)-2-((S)-(5,6-dihydro-4H-cyclopenta[d]thiazol-2-yl)(hydroxy)methyl)-5-(4-methyl-7H-pyrrolo[2,3-d]pyrimidin-7-yl)tetrahydrofuran-3,4-diol], the IC50 amounted to 0.0093 µM on PRMT5/MEP50 complex [1] (read-out: Flash Plate IC50), 1.7 µM in test [2] (setting [5]) and 0.009 µM against PRMT5/MEP50 complex [3].

Consider `OCCc1ncnc2c1ccn2[C@@H]1O[C@H]([C@H](O)c2ccc3c(c2)CC3)[C@@H](O)[C@H]1O` [Example 53, (2R,3S,4R,5R)-2-((R)-bicyclo[4.2.0]octa-1,3,5-trien-3-yl(hydroxy)methyl)-5-(4-(2-hydroxyethyl)-7H-pyrrolo[2,3-d]pyrimidin-7-yl)tetrahydrofuran-3,4-diol], for which the figures for the IC50 (on PRMT5/MEP50 complex [1] (read-out: Flash Plate IC50); in test [2] (setting [5]); against PRMT5/MEP50 complex [3]) were 0.134 µM, 5.24 µM and 0.164 µM, respectively.

On to `Nc1ncnc2c1ccn2[C@@H]1O[C@H]([C@H](O)c2ccc3c(c2)CC3)[C@@H](O)[C@H]1O` [Example 2, (2R,3R,4S,5R)-2-(4-amino-7H-pyrrolo[2,3-d]pyrimidin-7-yl)-5-((R)-bicyclo[4.2.0]octa-1(6),2,4-trien-3-yl(hydroxy)methyl)tetrahydrofuran-3,4-diol], for which the IC50 at PRMT5/MEP50 complex [1] (setting [4]) was found to be 0.0042 µM; on PRMT5/MEP50 complex [1] (read-out: Flash Plate IC50), 0.0041 µM; in test [2] (setting [5]), 0.02 µM; against PRMT5/MEP50 complex [3], 0.002 µM.

`O[C@@H]1[C@H](O)[C@@H]([C@H](O)c2ccc3c(c2)CC3)O[C@H]1n1ccc2c(Cl)ncnc21` [Example 56, (2R,3S,4R,5R)-2-((R)-bicyclo[4.2.0]octa-1(6),2,4-trien-3-yl(hydroxy)methyl)-5-(4-chloro-7H-pyrrolo[2,3-d]pyrimidin-7-yl)tetrahydrofuran-3,4-diol]: the IC50 came out at 0.0176 µM at PRMT5/MEP50 complex [1] (read-out: Flash Plate IC50) and 0.923 µM in test [2] (setting [5]).

Consider `Nc1ncnc2c1c(Br)cn2[C@@H]1O[C@H]([C@H](O)c2ccc3c(c2)CC3)[C@@H](O)[C@H]1O` [Example 36, (2R,3R,4S,5R)-2-(4-amino-5-bromo-7H-pyrrolo[2,3-d]pyrimidin-7-yl)-5-((R)-bicyclo[4.2.0]octa-1,3,5-trien-3-yl(hydroxy)methyl)tetrahydrofuran-3,4-diol], for which the IC50 at PRMT5/MEP50 complex [1] (read-out: Flash Plate IC50) stood at 0.02 µM; in test [2] (setting [5]), 3.78 µM; at PRMT5/MEP50 complex [3], 0.011 µM.

Regarding `Nc1ncnc2c1c(F)cn2[C@@H]1O[C@H]([C@H](O)c2ccc3c(c2)CC3)[C@@H](O)[C@H]1O` [Example 6, (2R,3R,4S,5R)-2-(4-amino-5-fluoro-7H-pyrrolo[2,3-d]pyrimidin-7-yl)-5-((R)-bicyclo[4.2.0]octa-1(6),2,4-trien-3-yl(hydroxy)methyl)tetrahydrofuran-3,4-diol], the IC50 at PRMT5/MEP50 complex [1] (read-out: Flash Plate IC50) was found to be 0.0028 µM; in test [2] (setting [5]) it was 0.038 µM; at PRMT5/MEP50 complex [3] it was 0.0007 µM.

Take `Cc1ncnc2c1ccn2[C@@H]1O[C@H]([C@H](O)c2ccc3c(c2)CC3)[C@@H](O)[C@H]1O` [Example 11, (2R,3S,4R,5R)-2-((R)-bicyclo[4.2.0]octa-1(6),2,4-trien-3-yl(hydroxy)methyl)-5-(4-methyl-7H-pyrrolo[2,3-d]pyrimidin-7-yl)tetrahydrofuran-3,4-diol]: the IC50 is 0.0059 µM on PRMT5/MEP50 complex [1] (setting [4]), 0.0068 µM at PRMT5/MEP50 complex [1] (read-out: Flash Plate IC50), 0.033 µM in test [2] (setting [5]) and 0.003 µM against PRMT5/MEP50 complex [3].

For the molecule `CNc1ncnc2c1ccn2[C@@H]1O[C@H]([C@H](O)c2ccc3c(c2)CC3)[C@@H](O)[C@H]1O` [Example 54, (2R,3S,4R,5R)-2-((R)-bicyclo[4.2.0]octa-1(6),2,4-trien-3-yl(hydroxy)methyl)-5-(4-(methylamino)-7H-pyrrolo[2,3-d]pyrimidin-7-yl)tetrahydrofuran-3,4-diol], the IC50 was determined as 0.0376 µM on PRMT5/MEP50 complex [1] (read-out: Flash Plate IC50) and 0.759 µM in test [2] (setting [5]).
